From publication PMC7335359, “Design and Synthesis of Dihydroxamic Acids as HDAC6/8/10 Inhibitors” (Chemmedchem, 2020)

Experiments:
[1] = test system: acetylation of tubulin (HDAC6 substrate); assay: Western blot of tubulin acetylation in SK-N-BE(2)C cells; type: cell-based
Protocol: (§1) Western blot analysis of SMC3, tubulin and histone H3 acetylation: For the analysis of protein acetylation, 1.5–2×10^6 SK‐N‐BE(2)‐C cells were seeded per 10 cm dish and allowed to adhere overnight. Cells were treated for 18 h (Figure 4B) or 6 h (Figure 4E) with inhibitors at concentrations indicated in the respective figure. Cells were lysed in SDS lysis buffer (2 % w/v SDS, 10 % v/v glycerol, 1 mM DTT, 62.5 mM TRIS, pH 6.8) and proteins were denatured at 95 °C for 10 min. Cell debris was removed by centrifugation (15 000 g for 10 min at 12 °C). Western blot analysis was performed as described before.7a The following antibodies were used: anti‐acetylated tubulin (6‐11B‐1; Sigma) anti‐acetylated SMC3 (kindly provided by Katsuhiko Shirahige, Institute for Molecular and Cellular Biosciences, University of Tokyo, Japan),35 anti acetylated histone H3 (#06‐911, Millipore), anti histone H3 (#9715, Cell Signaling Technology) and anti β‐actin (#5441, Sigma‐Aldrich).

[2] = test system: acetylation of histone H3 (HDAC1 substrate); assay: Western blot of histone H3 acetylation in SK-N-BE(2)C cells; type: cell-based
Protocol: as §1

In the case of O=C(NO)c1ccc(Cc2c[nH]c3ccc(C(=O)NO)cc23)cc1 [Compound 3d], the “acetylation of tubulin (HDAC6 substrate), Western blot” value [1] is reported as “increases acetylation” and the “acetylation of histone H3 (HDAC1 substrate), Western blot” value [2] is reported as “significantly weaker effects”.
